Measurements from the NIST ThermoML archive (doi:10.1016/j.jct.2009.07.022).
Several values for one entry are separate records, joined by “and”; a condition that tells them apart may be missing. Equal entries are not always repeated.

How the values were obtained:
[1] = Crystal, Calculated from knudsen effusion weight loss
[2] = molar enthalpy of transition or fusion; settings: 298.15 K; Crystal; Clausius-Clapeyron Eq with Heat Capacity

c1ccc(-c2cccc(-c3ccccc3)c2-c2ccccc2)cc1 [1,2,3-triphenylbenzene]
[1]
Settings	vapor or sublimation pressure
373.15 K	0.0001 kPa and 9.85e-05 kPa
375.03 K	0.000124 kPa and 0.00012 kPa
377.27 K	0.00016 kPa and 0.000158 kPa
379.15 K	0.0002 kPa and 0.000199 kPa and 0.000195 kPa
381.02 K	0.000244 kPa and 0.000247 kPa and 0.000237 kPa
383.27 K	0.000316 kPa and 0.000305 kPa and 0.000301 kPa
385.27 K	0.000384 kPa and 0.000369 kPa and 0.000365 kPa
387.12 K	0.000458 kPa and 0.00046 kPa
389.05 K	0.000548 kPa and 0.000555 kPa and 0.000543 kPa
391.28 K	0.000733 kPa and 0.00073 kPa and 0.000715 kPa
393.1 K	0.000871 kPa and 0.000865 kPa and 0.000872 kPa
394.98 K	0.001033 kPa and 0.001062 kPa and 0.001027 kPa

Settings	molar enthalpy of transition or fusion [kJ/mol]
[2]	134
